Laboratory results as given in patent publication US20090175872A1, “Treatment of Conditions Involving Demyelination” (BIOGEN Idec MA Inc., priority 2005, published 2009).
No end group written: not given here. *: point of attachment. Biotin = O=C1N[C@H]2[C@H](CS[C@H]2CCCCC(=O)*)N1

B1: AP-Sp35: human placental alkaline phosphatase with six histidine tag fused to human Sp35 residues 34-532 (protein, listed as Homo sapiens)
chain: TGCPPRCECSAQDRAVLCHRKRFVAVPEGIPTETRLLDLGKNRIKTLNQDEFASFPHLEELELNENIVSAVEPGAFNNLFNLRTLGLRSNRLKLIPLGVFTGLSNLTKLDISENKIVILLDYMFQDLYNLKSLEVGDNDLVYISHRAFSGLNSLEQLTLEKCNLTSIPTEALSHLHGLIVLRLRHLNINAIRDYSFKRLYRLKVLEISHWPYLDTMTPNCLYGLNLTSLSITHCNLTAVPYLAVRHLVYLRFLNLSYNPISTIEGSMLHELLRLQEIQLVGGQLAVVEPYAFRGLNYLRVLNVSGNQLTTLEESVFHSVGNLETLILDSNPLACDCRLLWVFRRRWRLNFNRQQPTCATPEFVQGKEFKDFPDVLLPNYFTCRRARIRDRKAQQVFVDEGHTVQFVCRADGDPPPAILWLSPRKHLVSAKSNGRLTVFPDGTLEVRYAQVQDNGTYLCIAANAGGNDSMPAHLHVRSYSPDWPHQPNKTFAFISNQPGE
modifications: alkaline phosphatase fusion partner
B2: AP-Sp35-Ig: AP-tagged Ig plus stalk domain of Sp35, amino acids 417-532 of SEQ ID NO:2 (protein, listed as Homo sapiens)
chain: RARIRDRKAQQVFVDEGHTVQFVCRADGDPPPAILWLSPRKHLVSAKSNGRLTVFPDGTLEVRYAQVQDNGTYLCIAANAGGNDSMPAHLHVRSYSPDWPHQPNKTFAFISNQPGE
modifications: AP tag fused
B3: AP-Sp35-LRR: AP-tagged LRR domain of Sp35, amino acids 34-417 of SEQ ID NO:2 (protein, listed as Homo sapiens)
chain: TGCPPRCECSAQDRAVLCHRKRFVAVPEGIPTETRLLDLGKNRIKTLNQDEFASFPHLEELELNENIVSAVEPGAFNNLFNLRTLGLRSNRLKLIPLGVFTGLSNLTKLDISENKIVILLDYMFQDLYNLKSLEVGDNDLVYISHRAFSGLNSLEQLTLEKCNLTSIPTEALSHLHGLIVLRLRHLNINAIRDYSFKRLYRLKVLEISHWPYLDTMTPNCLYGLNLTSLSITHCNLTAVPYLAVRHLVYLRFLNLSYNPISTIEGSMLHELLRLQEIQLVGGQLAVVEPYAFRGLNYLRVLNVSGNQLTTLEESVFHSVGNLETLILDSNPLACDCRLLWVFRRRWRLNFNRQQPTCATPEFVQGKEFKDFPDVLLPNYFTCRR
modifications: AP tag fused

Molecular target: T1, human ErbB2 (Homo sapiens, UniProt P04626)
T1 construct: expressed in transfected cells; host or cells: CHO cells, transient transfection with Fugene 6, assayed after 48 hours
Test: AP-Sp35 binding to ErbB2-transfected CHO cells
Conditions: FIG. 17A; read-out: EC50 of binding to CHO cells expressing ErbB2
Method: ErbB2 is a member of the type I family of transmembrane receptor tyrosine kinases. The family comprises four members: epidermal growth factor receptor (EGFR or ErbB1), ErB2 (HER2 or neu), ErbB3 and ErbB4. Oligodendrocyte differentiation is positively regulated by the ErbB2 receptor tyrosine kinase. To examine the potential interaction between Sp35 and ErB2, an N-terminal AP-tagged human Sp35 protein was tested for binding to human ErbB2-transfected Chinese hamster ovary (CHO) cells.
90% confluent CHO cells were transfected with various combinations of human ErbB2 vector expression plasmid using Fugene 6 reagents (Roche). After 48 hours, the transfected cells were washed with HBH (Hank's balanced salt solution, 1 mg/ml BSA, 20 mM HEPES (pH 7.0)) and incubated for 1.5 hours at 23° C. or […] with 4 μg/ml of AP-Sp35 (human placental alkaline phosphotase (AP) with an N-terminal six histidine tag, fused to the C-terminus of human Sp35 (residues 34-532), as described in Mi et al., Nat. Neurosci. 7:221-228 (2004)) or control AP-protein in HBH. Bound AP-Sp35 was detected directly or following detergent lysis of the cells by ELISA and enzymatic activity was quantified with 4-NPP as described in Mi et al. Nat. Neurosci. 7:221-228 (2004).
In order to identify the Sp35 domain that binds ErbB2, soluble truncated forms of AP-Sp35 were tested for binding. Both the LRR domain of Sp35 (amino acids 34-417 of SEQ ID NO:2) (AP-Sp35-LRR) and the extracellular domain of Sp35 (amino acids 34-532 of SEQ ID NO:2) (AP-Sp35) bound to ErbB2 expressed in CHO cells. […] FIGS. 17B and 17C.

Row | Molecule | EC50 [nM]
1 | B1 | 3

Same assay, conditions: FIGS. 17B and 17C

Row | Molecule | binding to ErbB2 expressed in CHO cells
2 | B2 | no detectable binding
3 | B3 | bound
4 | B1 | bound

Tested on: co-cultures of dorsal root ganglion (DRG) neurons and oligodendrocytes
Test: Myelination in co-cultures of DRG neurons and oligodendrocytes
Type: cell-based, rat
Conditions: 4-week-old treated co-cultures, anti-MBP antibody
Method: The role of Sp35 in myelination was examined in vitro by treating co-cultures of dorsal root ganglion (DRG) neurons and oligodendrocytes with Sp35-Fc and testing for myelination by immunohistochemistry and electron microscopy. For these studies, it was necessary to first generate primary cultures of DRG neurons and of oligodendrocytes.
Female Long Evans rat E14-E17 embryonic dorsal root ganglia were cultured as described by Plant et al., J. Neurosci. 22:6083-91 (2002). Dissected DRGs were plated on poly-L-lysine-coated cover slips (100 μg/ml) for 2 weeks in the presence of fluorodeoxyuridine for days 2-6 and days 8-11 in NLA medium containing 1×B27, 100 ng/ml NGF (Invitrogen).
A2B5^+ oligodendrocytes were prepared as described in Example 1, and were harvested by trypsinization.
For coculture studies, A2B5^+ oligodendrocytes were added to DRG neuron drop cultures in the presence or absence of 10 μg/ml Sp35-Fc. The culture medium (Neurobasal medium supplemented with B27 and 100 ng/ml NGF) was changed, and fresh Sp35-Fc was added to the cells every 3 d. To identify changes in myelination, 2-week-old cultures were stained by immunohistochemical staining (“IHC”) for neurofilaments with anti-βIII-tubulin antibody to identify axons, or anti-MBP antibody to identify oligodendrocytes., and 4-week-old cultures were subjected to SDS-PAGE followed by western blot analyses to quantify the MBP. In selected examples, cells were fixed for electron microscopy studies by adding 2.5% gluteraldehyde directly onto the cover slips. Myelinated axons in the 2-week-old cultures were quantified by counting the number of myelinated internode bundles that were derived from single MBP^+ oligodendrocytes. Samples were analyzed in duplicate. Error bars denote individual determinations. P values in all studies were determined using a one-way analysis of variance. […]
We performed experiments to address the relative contributions to the myelination process of Sp35 in DRG neurons as compared to oligodendrocytes. We infected DRG neurons, oligodendrocytes and co-cultures (prepared as described in Example 5) with the FL-Sp35 and DN-Sp35 lentiviral vectors described in Example 1 and performed immunohistochemical straining for myelinated MBP^+ cells after two weeks. A 2-fold increase in MBP levels in co-cultures where both cells express DN-Sp35 and a 2-fold decrease in MBP levels in co-cultures where both cells express FL-Sp35 was observed (FIG. 10G).

Row | Molecule | expression of MBP (western blot)
5 | Ac-CLSPEKVC (also: cyclic, type not given here) | no increase in MBP
6 | Ac-CLSPRKHC (Ac-CLSPRKHC-NH2; also: cyclic, type not given here) | increased expression of MBP
7 | Biotin-GSGCKHSPLRC (cysteine pairing not given here) | no increase in MBP
8 | Biotin-GSGCLSPEKVC (cysteine pairing not given here) | no increase in MBP
9 | Biotin-GSGCLSPRKHC (cysteine pairing not given here) | increased expression of MBP
